Experimental data: patent US9802064B2, “Microcapsule comprising glycoprotein derived from plants” (AMOREPACIFIC CORPORATION, priority 2012, dated 2017)

Test: DPPH assay of anti-oxidative (radical scavenging) activity
Format: biochemical
Conditions: 100 μM DPPH, 37° C., 30 minutes, absorbance 517 nm; FIG. 7
Protocol: To evaluate anti-oxidative activity, DPPH (1,1-diphenyl-2-picrylhydrazyl) assay was carried out. The samples used in this test (Doore Co., Ltd.) are as follows.
DPPH assay is a test in which an oxidant called DPPH is used to initiate oxidation and the ability of a sample to be tested in removing radicals is determined. When DPPH meets a material having anti-oxidative activity, it […] electrons to cause radical removing and undergoes a change in color from purple to yellow. Thus, it is possible to observe the oxidative activity of a material easily with the naked eye.
Each sample was introduced to a 96-well plate in an amount of 10 μl, and 100 μM of DPPH was introduced thereto in an amount of 190 μl. After carrying out reaction at 37° C. for 30 minutes, the absorbance was measured at 517 nm. Vitamin C was used as positive control (10, 5, 2.5 μg/ml).

## sodium caseinate [ISAI-022]
  anti-oxidative activity (DPPH radical scavenging): no radical scavenging activity
